Assay [1] concerns the target Matrix metalloproteinase-9 (Homo sapiens, UniProt P14780). The assay is described as follows: biochemical. The assay is classed as cell-based.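 Note: inhibition of isolated MMP-9 enzyme activity toward a synthetic peptide substrate, from the DrugMatrix protease screening panel; in other assays of this panel Not Active means under 50% inhibition at 10 µM.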
Assay [2] is described as follows: DRUGMATRIX: GABAA, Muscimol, Central radioligand binding (ligand: [3H] Muscimol). The assay is classed as cell membranes, Rattus norvegicus, Wistar, Brain, Membrane. The conditions noted are these: Not Active = under 50% inhibition at 10 µM.
The target of a further assay is Glycine receptor (Rattus norvegicus, UniProt P22771+P24524+P07727+P20781). Format: cell membranes, Wistar, Spinal cord, Membrane. Note: in other assays of this panel Not Active means under 50% inhibition at 10 µM.
In assay [3] the target is Prostaglandin G/H synthase 1 (Homo sapiens, UniProt P23219). Kind of assay: biochemical. The assay is classed as tissue-based, Platelet. The conditions noted are these: platelet.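 Note: inhibition of COX-1 enzyme activity, with arachidonic acid supplied as substrate; in other assays of this panel Not Active means under 50% inhibition at 10 µM.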
Prostaglandin G/H synthase 1, sequence (P23219 whole entry): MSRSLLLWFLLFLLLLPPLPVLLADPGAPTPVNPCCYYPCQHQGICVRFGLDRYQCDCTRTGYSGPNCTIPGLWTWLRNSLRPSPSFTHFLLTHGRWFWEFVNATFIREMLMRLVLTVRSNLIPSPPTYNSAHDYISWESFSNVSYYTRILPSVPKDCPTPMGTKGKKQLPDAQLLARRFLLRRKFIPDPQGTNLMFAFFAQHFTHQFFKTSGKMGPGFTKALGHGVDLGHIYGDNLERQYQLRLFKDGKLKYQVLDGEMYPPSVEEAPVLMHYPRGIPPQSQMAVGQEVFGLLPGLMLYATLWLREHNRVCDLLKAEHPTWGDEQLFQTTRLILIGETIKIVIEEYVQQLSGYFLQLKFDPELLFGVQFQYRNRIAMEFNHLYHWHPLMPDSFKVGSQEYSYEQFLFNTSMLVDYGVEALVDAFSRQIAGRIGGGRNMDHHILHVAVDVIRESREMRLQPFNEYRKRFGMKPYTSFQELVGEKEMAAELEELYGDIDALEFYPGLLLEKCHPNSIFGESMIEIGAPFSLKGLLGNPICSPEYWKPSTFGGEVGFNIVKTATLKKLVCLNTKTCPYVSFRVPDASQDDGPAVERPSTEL
In assay [4] the target is T1, Alpha-1D adrenergic receptor (Homo sapiens, UniProt P25100). Note: in other assays of this panel Not Active means under 50% inhibition at 10 µM.
T1 sequence (P25100 whole entry): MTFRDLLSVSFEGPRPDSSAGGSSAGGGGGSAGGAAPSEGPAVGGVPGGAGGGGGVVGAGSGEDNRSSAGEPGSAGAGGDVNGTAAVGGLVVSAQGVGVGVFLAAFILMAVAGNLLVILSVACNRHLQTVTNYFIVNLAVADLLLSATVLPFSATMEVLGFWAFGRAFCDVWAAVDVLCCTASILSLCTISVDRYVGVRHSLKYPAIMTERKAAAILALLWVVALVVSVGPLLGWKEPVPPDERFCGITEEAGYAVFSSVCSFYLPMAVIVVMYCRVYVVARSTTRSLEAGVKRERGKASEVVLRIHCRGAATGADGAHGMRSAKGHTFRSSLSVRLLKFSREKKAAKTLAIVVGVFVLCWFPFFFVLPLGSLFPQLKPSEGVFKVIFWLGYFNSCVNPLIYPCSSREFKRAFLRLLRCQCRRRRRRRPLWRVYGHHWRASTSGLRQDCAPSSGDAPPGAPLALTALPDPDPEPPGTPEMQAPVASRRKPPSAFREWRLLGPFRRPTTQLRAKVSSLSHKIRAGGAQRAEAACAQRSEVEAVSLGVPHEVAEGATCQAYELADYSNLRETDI
Format: cell membranes, HEK293, Membrane.

Assay [5] concerns the target T2, Muscarinic acetylcholine receptor M4 (Homo sapiens, UniProt P08173). Note: in other assays of this panel Not Active means under 50% inhibition at 10 µM.
T2 sequence (P08173 whole entry): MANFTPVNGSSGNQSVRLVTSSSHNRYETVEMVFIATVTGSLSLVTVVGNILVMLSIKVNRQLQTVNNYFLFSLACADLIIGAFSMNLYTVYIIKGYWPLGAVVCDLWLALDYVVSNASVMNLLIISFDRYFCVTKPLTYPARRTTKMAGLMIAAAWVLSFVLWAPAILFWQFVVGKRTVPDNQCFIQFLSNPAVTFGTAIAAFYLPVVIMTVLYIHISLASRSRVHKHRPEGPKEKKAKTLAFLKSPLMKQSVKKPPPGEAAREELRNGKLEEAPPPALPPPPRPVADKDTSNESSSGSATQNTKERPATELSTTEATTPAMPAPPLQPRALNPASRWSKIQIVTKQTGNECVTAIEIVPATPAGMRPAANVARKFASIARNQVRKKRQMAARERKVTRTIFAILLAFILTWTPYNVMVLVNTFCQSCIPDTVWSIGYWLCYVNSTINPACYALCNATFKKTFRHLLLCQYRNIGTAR
The assay is classed as cell membranes, CHO-K1, Membrane. The conditions noted are these: cho-k1.

IC50 and Ki data for 10 molecules are collected here from ChEMBL document CHEMBL1909046, “DrugMatrix in vitro pharmacology data”.

Matrix metalloproteinase-9, sequence (P14780 whole entry): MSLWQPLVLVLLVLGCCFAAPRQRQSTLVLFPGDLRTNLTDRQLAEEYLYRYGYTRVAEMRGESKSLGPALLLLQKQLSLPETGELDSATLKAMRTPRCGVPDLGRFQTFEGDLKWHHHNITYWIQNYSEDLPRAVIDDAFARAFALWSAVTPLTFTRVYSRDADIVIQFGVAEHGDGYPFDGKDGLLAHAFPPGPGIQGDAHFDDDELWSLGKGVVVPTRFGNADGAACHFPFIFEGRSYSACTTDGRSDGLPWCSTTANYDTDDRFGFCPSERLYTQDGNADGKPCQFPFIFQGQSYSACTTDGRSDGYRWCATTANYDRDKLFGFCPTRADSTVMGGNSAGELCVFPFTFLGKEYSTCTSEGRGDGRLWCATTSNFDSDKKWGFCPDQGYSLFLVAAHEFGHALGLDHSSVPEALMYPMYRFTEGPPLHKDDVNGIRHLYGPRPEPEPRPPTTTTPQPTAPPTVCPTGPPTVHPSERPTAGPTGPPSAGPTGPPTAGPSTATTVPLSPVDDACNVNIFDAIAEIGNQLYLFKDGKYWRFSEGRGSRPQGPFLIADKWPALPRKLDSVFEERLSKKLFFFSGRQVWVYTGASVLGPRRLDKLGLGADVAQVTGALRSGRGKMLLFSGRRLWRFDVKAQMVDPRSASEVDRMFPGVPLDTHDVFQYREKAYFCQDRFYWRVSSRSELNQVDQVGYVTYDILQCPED

As to `O=C(c1ccccc1C(F)(F)F)N1CCC(Cc2ccccc2)CC1`, the IC50 entry (in assay [1]; in assay [2]; on Glycine receptor; in assay [3]; in assay [4] (hek293); in assay [5]) was “Not Active” each time. Further, the Ki entry in assay [2] was “Not Active”.
`O=C/C=C/c1ccccc1`: the IC50 result (in assay [1]; in assay [2]; at Glycine receptor; in assay [3]; in assay [4] (hek293); in assay [5]) was “Not Active” in each case. Moreover, the Ki result in assay [2] is reported as “Not Active”.
For `Nc1ccc2c3c(cccc13)C(=O)NC2=O`, the IC50 entry (in assay [1]; in assay [2]; at Glycine receptor; in assay [3]; in assay [4] (hek293); in assay [5]) was “Not Active” in each case. Further, the Ki entry in assay [2] is “Not Active”.
Turning to `COc1ccc(C(=O)N2CCCC2=O)cc1`, the IC50 entry (in assay [1]; in assay [2]; on Glycine receptor; in assay [3]; in assay [4] (hek293); in assay [5]) was “Not Active” each time. The inhibition constant (Ki) entry in assay [2] is recorded as “Not Active”.
With `O=c1cnn([C@@H]2O[C@H](CO)[C@@H](O)[C@H]2O)c(=O)[nH]1` [6-AZAURIDINE], the IC50 entry (in assay [1]; in assay [2]; on Glycine receptor; in assay [3]; in assay [4] (hek293); in assay [5]) was “Not Active” each time. Also, the Ki result in assay [2] is “Not Active”.
Take `CC[C@H](C)[C@H]1O[C@]2(C=C[C@@H]1C)C[C@@H]1C[C@@H](C/C=C(\C)[C@@H](O[C@H]3C[C@H](OC)[C@@H](O[C@H]4C[C@H](OC)[C@@H](O)[C@H](C)O4)[C@H](C)O3)[C@@H](C)/C=C/C=C3\CO[C@@H]4[C@H](O)C(C)=C[C@@H](C(=O)O1)[C@]34O)O2.CO[C@H]1C[C@H](O[C@H]2[C@H](C)O[C@@H](O[C@@H]3/C(C)=C/C[C@@H]4C[C@@H](C[C@]5(C=C[C@H](C)[C@@H](C(C)C)O5)O4)OC(=O)[C@@H]4C=C(C)[C@@H](O)[C@H]5OC/C(=C\C=C\[C@@H]3C)[C@]54O)C[C@@H]2OC)O[C@@H](C)[C@@H]1O` [ABAMECTIN]: the IC50 result in assay [1], in assay [2], in assay [3], in assay [4] (hek293) and in assay [5] was “Not Active” each time. For the same molecule, the Ki result in assay [2] was “Not Active”.
With `NCCCC(O)(P(=O)(O)O)P(=O)(O)O` [ALENDRONIC ACID], the IC50 entry (in assay [1]; in assay [2]; against Glycine receptor; in assay [3]; in assay [4] (hek293); in assay [5]) was “Not Active” each time. Besides, the inhibitory constant (Ki) entry in assay [2] is given as “Not Active”.
As for `CN1[C@@H]2CC[C@H]1C[C@@H](OC(=O)C(CO)c1ccccc1)C2` (some centres not stated) [ATROPINE], the IC50 entry in assay [1] is “Not Active”; in assay [2], “Not Active”; against Glycine receptor, “Not Active”; in assay [3] it was “Not Active”; in assay [4] (read-out: IC50), 1350 nM. The Ki entry in assay [2] is “Not Active”; in assay [4], 666 nM.
Take `O=C(O)c1cccnc1Nc1cccc(C(F)(F)F)c1` [NIFLUMIC ACID]: the IC50 result (in assay [1]; in assay [2]; on Glycine receptor; in assay [4] (hek293); in assay [5]) was “Not Active” in each case. The Ki entry in assay [2] is “Not Active”.
For `COc1cc2nc(N3CCN(C(=O)c4ccco4)CC3)nc(N)c2cc1OC` [PRAZOSIN], the 50% inhibitory concentration (IC50) in assay [1] (read-out: IC50) is 6960 nM; in assay [2] it was “Not Active”; on Glycine receptor it was “Not Active”; in assay [3] it was “Not Active”; in assay [5], “Not Active”. Also, the Ki entry in assay [2] is “Not Active”.

A word on the IC50: it is the concentration at which inhibition is half-maximal. The term Ki denotes the dissociation constant of the complex between target and ligand, obtained from inhibition or displacement.
